Measurements from patent publication US8901160B2, “Heparanase activity inhibitor” (Shiseido Company, Ltd., priority 2009, dated 2014).

Molecular target: T1, heparanase (Homo sapiens, UniProt Q9Y251)
T1 construct: the supernatant was recovered as cell extract; endogenous in cells; host or cells: A431 cells (human epithelial carcinoma), Triton X-100 lysate supernatant
T1 sequence (Q9Y251 158-543 limits assumed): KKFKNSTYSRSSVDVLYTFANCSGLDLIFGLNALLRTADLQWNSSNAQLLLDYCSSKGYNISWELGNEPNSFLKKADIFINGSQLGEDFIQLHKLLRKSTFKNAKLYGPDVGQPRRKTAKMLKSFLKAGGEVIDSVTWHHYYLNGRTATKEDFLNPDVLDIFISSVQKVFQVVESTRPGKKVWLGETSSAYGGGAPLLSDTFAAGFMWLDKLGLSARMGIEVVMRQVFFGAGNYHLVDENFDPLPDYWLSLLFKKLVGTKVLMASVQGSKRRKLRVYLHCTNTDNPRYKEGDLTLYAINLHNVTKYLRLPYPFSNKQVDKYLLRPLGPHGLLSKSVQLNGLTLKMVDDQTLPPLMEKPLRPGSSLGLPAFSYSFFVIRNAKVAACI
T1 sequence (Q9Y251 36-109 limits assumed): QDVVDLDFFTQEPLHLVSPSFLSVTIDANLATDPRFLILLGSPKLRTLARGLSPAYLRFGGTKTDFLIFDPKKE
Assay: Evaluation based on heparanase activity inhibition rate (A431 cell extract, biotinylated heparan sulfate-immobilized plate)
Type: biochemical
Settings: 37° C., 2 hours
Procedure: In the primary evaluation using heparanase activity as the index, as described in detail in the examples which follow, biotinylated heparan sulfate was immobilized in 96 wells, after which heparanase was allowed to act in the presence of a drug, and the amount of reduction in biotinylated heparan sulfate was used to evaluate the heparanase activity by the reaction with peroxidase-labeled avidin and coloration.
A431 cells (human epithelial carcinoma cells) were cultured in 10% serum-containing DMEM (Dulbecco's modified Eagle medium). The cultured cells were solubilized in lysis buffer (50 mM Tris, 0.5% TritonX-100, 0.15 M sodium chloride, pH 4.5) and collected with a scraper, and then pipetted and allowed to stand on ice for 30 minutes. This was followed by centrifugation at 10,000 rpm for 10 minutes to remove the insoluble portion, and the supernatant was recovered as cell extract. The amount of protein in the cell extract was measured with a BCA protein assay kit (BCA Protein Assay Kit, PIERCE, CA46141).
The A431 cell extract was then diluted to 500 μg/mL with assay buffer (50 mM HEPES, 50 mM sodium acetate, 150 mM sodium chloride, 9 mM calcium chloride, 0.1% BSA). […] After further rinsing 3 times with PBS-T, TMB reagent (BIO-RAD, 172-1066) was added at 100 μL/well and reacted therewith, the reaction was terminated with 1N sulfuric acid, and the absorbance at 475 nm (OD475) was measured.
Also, DMSO was added to a serial diluent prepared with the aforementioned A431 cell extract assay buffer (cell extract concentrations: 500 μg/mL, 50 μg/mL, 5 μg/mL, 0.5 μg/mL), to a final concentration of 5% without addition of the test compound, to obtain a mixture (solution for calibration curve). The solution for the calibration curve was subjected to the treatment of the same procedure described above, from seeding of the biotinylated heparan sulfate-immobilized plate, and the OD475 was measured. […]

Heparanase inhibition rate (addition concentration 0.05%) [%]	Heparanase inhibition rate (addition concentration 0.5%) [%]	Structure (SMILES)
99.40		O=C1NCCN1CCO [1-(2-Hydroxyethyl)-2-imidazolidinone, 1-(2-hydroxyethyl)-2-imidazolidinone]
99.00		O=C1CCCN1CCO [1-(2-Hydroxyethyl)-2-pyrrolidone, 1-(2-hydroxyethyl)-2-pyrrolidone]
	99.95	O=C1NCCN1 [2-Imidazolidinone, 2-imidazolidinone]
